# Laboratory results as given in ChEMBL document CHEMBL5143574, “Unraveling the anti-virulence potential and antifungal efficacy of 5-aminotetrazoles using the zebrafish model of disseminated candidiasis” (Eur J Med Chem, 2022).
# Calls of active or inactive are those of the source. No cut-off for these calls is given here.
# System: Candida albicans
# Assay: Antifungal activity against Candida albicans SC5314 assessed as inhibition of fungal growth incubated for 24 hrs by broth microdilution assay
# Format: functional
# Conditions: not given
row,SMILES,MIC [µM]
1,c1ccc(Nc2nnn(CCC34CC5CC(CC(C5)C3)C4)n2)cc1,> 200
2,COc1ccc(Nc2nnnn2Cc2ccccc2)cc1,> 200
3,Nc1nnnn1-c1ccccc1 [FENAMOLE],> 200
4,Nc1nnn(CCC23CC4CC(CC(C4)C2)C3)n1,> 200
5,Cc1cc(Cl)ccc1Nc1nnnn1Cc1ccccc1,6.4
6,CCCn1nnnc1Nc1ccccc1,> 200
7,N#Cc1ccc(Nc2nnnn2Cc2ccccc2)cc1,> 200
8,COC(=O)c1cccc(Nc2nnnn2Cc2ccccc2)c1,35.4
9,Nc1nnn(Cc2ccccc2)n1,> 200
10,O=[N+]([O-])c1ccc(Nc2nnnn2Cc2ccccc2)cc1,> 200
11,c1ccc(Cn2nnnc2Nc2cccnc2)cc1,> 200
12,Clc1nccc(Nc2nnnn2Cc2ccccc2)n1,35.4
13,Nc1nnn[nH]1,> 200
14,Nc1nnnn1Cc1ccccc1,> 200

# System: not listed separately
# Assay: Toxicity in zebrafish embryos assessed as toxic responses at 200 uM treated at 6 hpf and measured at 120 hpf by stereomicroscopic analysis
# Parameters: species or system Danio rerio
# Conditions: in vivo, 24 h
row,SMILES,Activity
1,Nc1nnn[nH]1,Non-Toxic

# System: not listed separately
# Assay: Hepatotoxicity in zebrafish embryos assessed as liver darkening at 25 uM treated at 6 hpf and measured at 120 hpf by stereomicroscopic analysis
# Format: toxicity, Danio rerio
# Conditions: in vivo
row,SMILES,Activity
1,Clc1nccc(Nc2nnnn2Cc2ccccc2)n1,Toxic

# System: not listed separately
# Assay: Toxicity in zebrafish embryos assessed as mortality treated at 6 hpf and measured at 120 hpf by stereomicroscopic analysis
# Parameters: species or system Danio rerio
# Conditions: in vivo
row,SMILES,LC50 [µM]
1,c1ccc(Nc2nnn(CCC34CC5CC(CC(C5)C3)C4)n2)cc1,> 200
2,COc1ccc(Nc2nnnn2Cc2ccccc2)cc1,> 200
3,Nc1nnnn1-c1ccccc1 [FENAMOLE],> 200
4,Nc1nnn(CCC23CC4CC(CC(C4)C2)C3)n1,> 200
5,CCCn1nnnc1Nc1ccccc1,> 200
6,N#Cc1ccc(Nc2nnnn2Cc2ccccc2)cc1,> 200
7,Nc1nnn(Cc2ccccc2)n1,> 200
8,O=[N+]([O-])c1ccc(Nc2nnnn2Cc2ccccc2)cc1,> 200
9,c1ccc(Cn2nnnc2Nc2cccnc2)cc1,> 200
10,Nc1nnn[nH]1,> 200
11,Nc1nnnn1Cc1ccccc1,> 200

# System: not listed separately
# Assay: Hepatotoxicity in zebrafish embryos assessed as liver failure by measuring necrotic and decreased liver with non-resorbed yolk at 0.25 uM treated at 6 hpf and measured at 120 hpf by stereomicroscopic analysis
# Format: toxicity, tissue-based, Danio rerio
# Conditions: in vivo
row,SMILES,Activity
1,CCC(C)n1ncn(-c2ccc(N3CCN(c4ccc(OCC5COC(Cn6cncn6)(c6ccc(Cl)cc6Cl)O5)cc4)CC3)cc2)c1=O (centres undefined) [ITRACONAZOLE],Toxic

# System: not listed separately
# Assay: Cardiotoxicity in zebrafish embryos assessed as pericardial edema at 0.25 uM treated at 6 hpf and measured at 120 hpf by stereomicroscopic analysis
# Format: toxicity, Danio rerio
# Conditions: not given
row,SMILES,Activity
1,CCC(C)n1ncn(-c2ccc(N3CCN(c4ccc(OCC5COC(Cn6cncn6)(c6ccc(Cl)cc6Cl)O5)cc4)CC3)cc2)c1=O (centres undefined) [ITRACONAZOLE],Toxic

# System: Candida albicans
# Assay: Anti-virulence activity against Candida albicans SC5314 assessed as inhibition of fungal filamentation by measuring reduction in hyphae formation in Spider medium upto 10 uM incubated for 3 to 5 days by stereomicroscopic analysis
# Format: functional, organism-based
# Conditions: time 3-5 day
row,SMILES,Activity
1,Nc1nnn(CCC23CC4CC(CC(C4)C2)C3)n1,Active

# System: Candida albicans
# Assay: Anti-virulence activity against Candida albicans SC5314 assessed as inhibition of fungal filamentation by measuring reduction in hyphae formation in Lee medium upto 10 uM incubated for 3 to 5 days by stereomicroscopic analysis
# Format: functional, organism-based
# Conditions: time 3-5 day
row,SMILES,Activity
1,Nc1nnn(CCC23CC4CC(CC(C4)C2)C3)n1,Active

# System: Candida albicans
# Assay: Anti-virulence activity against Candida albicans SC5314 assessed as inhibition of fungal filamentation by measuring reduction in hyphae formation in YPS medium upto 10 uM incubated for 3 to 5 days by stereomicroscopic analysis
# Format: functional, organism-based
# Conditions: time 3-5 day
row,SMILES,Activity
1,Nc1nnn(CCC23CC4CC(CC(C4)C2)C3)n1,Active

# System: Candida albicans
# Assay: Anti-virulence activity against Candida albicans SC5314 assessed as inhibition of fungal filamentation by measuring reduction in hyphae formation in SLAD medium upto 10 uM incubated for 3 to 5 days by stereomicroscopic analysis
# Format: functional, organism-based
# Conditions: time 3-5 day
row,SMILES,Activity
1,Nc1nnn(CCC23CC4CC(CC(C4)C2)C3)n1,Active

# System: Candida albicans
# Assay: Anti-virulence activity against Candida albicans SC5314 assessed as inhibition of fungal filamentation by measuring reduction in hyphae formation in YPS plus uridine medium upto 10 uM incubated for 3 to 5 days by stereomicroscopic analysis
# Format: functional, organism-based
# Conditions: time 3-5 day
row,SMILES,Activity
1,Nc1nnn(CCC23CC4CC(CC(C4)C2)C3)n1,Active

# System: Candida albicans
# Assay: Anti-virulence activity against Candida albicans SC5314 assessed as inhibition of fungal filamentation by measuring reduction in hyphae formation in GlcNAc medium upto 10 uM incubated for 3 to 5 days by stereomicroscopic analysis
# Format: functional, organism-based
# Conditions: time 3-5 day
row,SMILES,Activity
1,Nc1nnn(CCC23CC4CC(CC(C4)C2)C3)n1,Active

# System: Candida albicans
# Assay: Anti-virulence activity against Candida albicans SC5314 assessed as inhibition of fungal filamentation by measuring reduction of hyphae formation in Lee medium at 1.3 uM incubated for 3 to 5 days by stereomicroscopic analysis
# Format: functional, organism-based
# Conditions: time 3-5 day
row,SMILES,Activity
1,Nc1nnn(CCC23CC4CC(CC(C4)C2)C3)n1,Active

# System: Candida albicans
# Assay: Anti-virulence activity against Candida albicans SC5314 assessed as inhibition of fungal filamentation by measuring reduction of hyphae formation in SLAD medium at 1.3 uM incubated for 3 to 5 days by stereomicroscopic analysis
# Format: functional, organism-based
# Conditions: time 3-5 day
row,SMILES,Activity
1,Nc1nnn(CCC23CC4CC(CC(C4)C2)C3)n1,Active

# System: Candida albicans
# Assay: Anti-virulence activity against Candida albicans SC5314 assessed as inhibition of fungal filamentation by measuring reduction of hyphae formation in YPS medium at 1.3 uM incubated for 3 to 5 days by stereomicroscopic analysis
# Format: functional, organism-based
# Conditions: time 3-5 day
row,SMILES,Activity
1,Nc1nnn(CCC23CC4CC(CC(C4)C2)C3)n1,Active

# System: Candida albicans
# Assay: Anti-virulence activity against Candida albicans SC5314 assessed as inhibition of fungal filamentation by measuring reduction of hyphae formation in YPS plus uridine medium at 1.3 uM incubated for 3 to 5 days by stereomicroscopic analysis
# Format: functional, organism-based
# Conditions: time 3-5 day
row,SMILES,Activity
1,Nc1nnn(CCC23CC4CC(CC(C4)C2)C3)n1,Active

# System: Candida albicans
# Assay: Anti-virulence activity against Candida albicans SC5314 assessed as inhibition of fungal filamentation by measuring reduction of hyphae formation in Spider medium at 1.3 uM incubated for 3 to 5 days by stereomicroscopic analysis
# Format: functional, organism-based
# Conditions: time 3-5 day
row,SMILES,Activity
1,Nc1nnn(CCC23CC4CC(CC(C4)C2)C3)n1,Active

# System: Candida albicans
# Assay: Anti-virulence activity against Candida albicans SC5314 assessed as inhibition of fungal filamentation by measuring reduction of hyphae formation in GlcNAc medium at 1.3 uM incubated for 3 to 5 days by stereomicroscopic analysis
# Format: functional, organism-based
# Conditions: time 3-5 day
row,SMILES,Activity
1,Nc1nnn(CCC23CC4CC(CC(C4)C2)C3)n1,Active

# System: Candida albicans
# Assay: Anti-virulence activity against Candida albicans SC5314 assessed as inhibition of fungal filamentation by measuring reduction of hyphae formation in RPMI medium at 1.3 uM incubated for 3 to 5 days by stereomicroscopic analysis
# Format: functional, organism-based
# Conditions: time 3-5 day
row,SMILES,Activity
1,Nc1nnn(CCC23CC4CC(CC(C4)C2)C3)n1,Active

# System: Candida albicans
# Assay: Anti-virulence activity against Candida albicans SC5314 assessed as inhibition of fungal filamentation by measuring reduction of hyphae formation in RPMI medium upto 10 uM incubated for 3 to 5 days by stereomicroscopic analysis
# Format: functional, organism-based
# Conditions: time 3-5 day
row,SMILES,Activity
1,Nc1nnn(CCC23CC4CC(CC(C4)C2)C3)n1,Active

# System: not listed separately
# Assay: Toxicity against zebrafish embryo infected with 53-75 RFP expressing cells of Candida albicans M137 assessed as mortality at 2.5 to 10 uM treated at 1 hr post-infection and measured on day 4 post-infection
# Parameters: species or system Danio rerio
# Conditions: 96 h, dose 2.5-10 µM, time 4 day
row,SMILES,Activity
1,Nc1nnn[nH]1,Non-Toxic

# System: Candida albicans
# Assay: Anti-virulence activity against Candida albicans SC5314 assessed as inhibition of fungal filamentation by measuring reduction in hyphae formation in Spider medium at 5 uM incubated for 3 to 5 days by stereomicroscopic analysis
# Format: functional, organism-based
# Conditions: time 3-5 day
row,SMILES,Activity
1,c1ccc(Nc2nnn(CCC34CC5CC(CC(C5)C3)C4)n2)cc1,Active
2,COc1ccc(Nc2nnnn2Cc2ccccc2)cc1,Active
3,Nc1nnnn1-c1ccccc1 [FENAMOLE],Active
4,CCCn1nnnc1Nc1ccccc1,Active
5,Nc1nnn[nH]1,Active
6,Nc1nnnn1Cc1ccccc1,Active

# System: Candida albicans
# Assay: Anti-virulence activity against Candida albicans SC5314 assessed as inhibition of fungal filamentation by measuring reduction in hyphae formation in Lee medium at 5 uM incubated for 3 to 5 days by stereomicroscopic analysis
# Format: functional, organism-based
# Conditions: time 3-5 day
row,SMILES,Activity
1,c1ccc(Nc2nnn(CCC34CC5CC(CC(C5)C3)C4)n2)cc1,Active
2,COc1ccc(Nc2nnnn2Cc2ccccc2)cc1,Active
3,Nc1nnnn1-c1ccccc1 [FENAMOLE],Active
4,CCCn1nnnc1Nc1ccccc1,Active
5,Nc1nnn[nH]1,Active
6,Nc1nnnn1Cc1ccccc1,Active

# System: Candida albicans
# Assay: Anti-virulence activity against Candida albicans SC5314 assessed as inhibition of fungal filamentation by measuring reduction in hyphae formation in YPS medium at 5 uM incubated for 3 to 5 days by stereomicroscopic analysis
# Format: functional, organism-based
# Conditions: time 3-5 day
row,SMILES,Activity
1,c1ccc(Nc2nnn(CCC34CC5CC(CC(C5)C3)C4)n2)cc1,Active
2,COc1ccc(Nc2nnnn2Cc2ccccc2)cc1,Active
3,Nc1nnnn1-c1ccccc1 [FENAMOLE],Active
4,CCCn1nnnc1Nc1ccccc1,Active
5,Nc1nnn[nH]1,Active
6,Nc1nnnn1Cc1ccccc1,Active

# System: Candida albicans
# Assay: Anti-virulence activity against Candida albicans SC5314 assessed as inhibition of fungal filamentation by measuring reduction in hyphae formation in YPS plus uridine medium at 5 uM incubated for 3 to 5 days by stereomicroscopic analysis
# Format: functional, organism-based
# Conditions: time 3-5 day
row,SMILES,Activity
1,c1ccc(Nc2nnn(CCC34CC5CC(CC(C5)C3)C4)n2)cc1,Active
2,COc1ccc(Nc2nnnn2Cc2ccccc2)cc1,Active
3,Nc1nnnn1-c1ccccc1 [FENAMOLE],Active
4,CCCn1nnnc1Nc1ccccc1,Active
5,Nc1nnn[nH]1,Active
6,Nc1nnnn1Cc1ccccc1,Active

# System: Candida albicans
# Assay: Anti-virulence activity against Candida albicans SC5314 assessed as inhibition of fungal filamentation by measuring reduction in hyphae formation in RPMI medium at 5 uM incubated for 3 to 5 days by stereomicroscopic analysis
# Format: functional, organism-based
# Conditions: time 3-5 day
row,SMILES,Activity
1,c1ccc(Nc2nnn(CCC34CC5CC(CC(C5)C3)C4)n2)cc1,Active
2,COc1ccc(Nc2nnnn2Cc2ccccc2)cc1,Active
3,Nc1nnnn1-c1ccccc1 [FENAMOLE],Active
4,CCCn1nnnc1Nc1ccccc1,Active
5,Nc1nnn[nH]1,Active
6,Nc1nnnn1Cc1ccccc1,Active
